Laboratory results published in PMC10144242, “Design, Synthesis, In Vitro, and In Silico Insights of 5-(Substituted benzylidene)-2-phenylthiazol-4(5H)-one Derivatives: A Novel Class of Anti-Melanogenic Compounds” (Molecules, 2023).

Experiments:
[1] = ABTS cation radical scavenging assay; conditions: 100 µM, 2 min in the dark
Excerpt: In addition, it has been reported that antioxidants that scavenge radicals may inhibit excess melanogenesis, because melanogenesis can be triggered by various radicals. Therefore, the 2,2′-azino-bis(3-ethylbenzothiazoline-6-sulfonic acid) (ABTS) cation radical scavenging abilities of 14 (Z)-BPT derivatives were studied using Trolox as a positive control. The ABTS cation radical is formed by transferring one electron of ABTS to K2S2O8 (potassium persulfate). To obtain an ABTS cation radical solution, a 7.4 mM ABTS solution was mixed with 2.6 mM potassium persulfate and kept in the dark at room temperature for 24 h. After adjusting the absorbance of the ABTS cation radical solution to 0.700 ± 0.03 at 732 nm, the ABTS cation radical solution was mixed with test samples (1–14 and Trolox) to a final concentration of 100 µM and kept for 2 min in the dark. The radical scavenging effects were assessed based on the absorbance measured at 732 nm.
The antioxidant properties of (Z)-BPT derivatives 1–14 were assessed using the ABTS cation-free radical scavenging assay, as previously described. […] Then, methanol was used to dilute the ABTS cation-free radical solution to an absorbance of 0.70 ± 0.02 at 734 nm. […] The absorbance of each well was measured at 734 nm using a VersaMax ™ microplate reader (Molecular Devices, Sunnyvale, CA, USA). […]

[2] = In vitro ROS scavenging assay (SIN-1, esterase, DCFH-DA); conditions: 40 µM, SIN-1-generated ROS
Procedure: DCFH-DA, esterase, and SIN-1 were used to measure the scavenging activity of in vitro ROS generated by SIN-1. DCFH-DA reacts with esterase to generate DCFH, which in turn, reacts with the in vitro ROS generated by SIN-1 to produce DCF. To evaluate the in vitro ROS scavenging effects of the (Z)-BPT derivatives, a concentration of 40 µM was used. […] Three derivatives, 2, 3, and 14, exerted strong scavenging abilities against both intracellular ROS and in vitro ROS.
The ROS scavenging abilities of (Z)-BPT derivatives 1–14 and Trolox were assessed in accordance with methods previously reported by Lebel and Bondy. Briefly, 50 mM phosphate buffer (pH 7.4) was dissolved with esterase (6 units/mL) and 1.25 mM DCFH-DA (2′,7′-dichlorodihydrofluorescein diacetate) from Molecular Probes (Eugene, OR, USA), maintained at 37 °C for 30 min, and kept on ice in the dark until use. […] Using a microplate reader (Berthold Advances GmbH & Co., Bad Wildbad, Germany), the fluorescence intensities of 2′,7′-dichlorofluorescein (DCF or oxidized DCFH) were examined at excitation and emission wavelengths of 485 nm and 535 nm, respectively. […]
Figure 11 The scavenging effects of (Z)-BPT derivatives 1–14 on (A) intracellular ROS and (B) in vitro ROS. ROS levels were assessed using an assay with SIN-1 (an ROS generator) and DCFH-DA (an ROS-sensitive fluorescence probe). […]

Cc1c(C)c2c(c(C)c1O)CCC(C)(C(=O)O)O2 (centres unmarked) [Trolox]
ABTS cation radical scavenging (inhibition) [1]: 81%
in vitro ROS scavenging activity [2]: significantly decreased the enhanced ROS levels
